This passage reports IC50 results from patent publication US11814367B2, “Inhibitors of glycogen synthase 1 (GYS1) and methods of use thereof” (Maze Therapeutics, Inc., priority 2021, dated 2023).

The target of this assay is hGYS1 enzyme (recombinant hGYS1/GN1 protein) (Homo sapiens (Human), UniProt P13807). Nature of the assay: GYS1 coupled enzyme assay (PK/LDH). The format is biochemical. To be noted: hGYS1/GN1 50 nM, UDP-Glucose 0.8 mM, G6P 1 mM; geometric mean of at least 2 runs.
hGYS1 enzyme (recombinant hGYS1/GN1 protein), sequence (P13807 whole entry): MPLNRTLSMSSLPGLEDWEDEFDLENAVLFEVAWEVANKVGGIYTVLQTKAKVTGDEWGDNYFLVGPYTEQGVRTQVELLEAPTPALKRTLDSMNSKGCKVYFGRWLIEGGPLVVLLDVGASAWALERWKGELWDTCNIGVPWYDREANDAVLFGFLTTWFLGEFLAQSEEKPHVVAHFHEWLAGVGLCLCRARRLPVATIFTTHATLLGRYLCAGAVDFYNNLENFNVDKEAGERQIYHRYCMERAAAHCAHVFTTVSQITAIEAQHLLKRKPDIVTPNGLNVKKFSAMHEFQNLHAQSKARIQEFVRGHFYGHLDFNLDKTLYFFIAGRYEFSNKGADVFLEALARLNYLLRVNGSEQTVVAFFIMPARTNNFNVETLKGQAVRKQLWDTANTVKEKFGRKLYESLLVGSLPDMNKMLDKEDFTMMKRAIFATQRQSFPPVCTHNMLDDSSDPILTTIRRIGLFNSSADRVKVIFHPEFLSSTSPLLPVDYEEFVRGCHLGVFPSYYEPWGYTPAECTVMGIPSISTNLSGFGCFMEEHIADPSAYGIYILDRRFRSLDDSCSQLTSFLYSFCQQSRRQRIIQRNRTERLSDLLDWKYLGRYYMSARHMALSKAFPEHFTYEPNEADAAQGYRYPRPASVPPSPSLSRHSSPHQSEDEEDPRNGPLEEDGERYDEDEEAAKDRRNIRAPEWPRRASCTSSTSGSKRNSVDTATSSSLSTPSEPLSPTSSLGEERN
hGYS1 enzyme (recombinant hGYS1/GN1 protein), sequence (P46976 whole entry partner): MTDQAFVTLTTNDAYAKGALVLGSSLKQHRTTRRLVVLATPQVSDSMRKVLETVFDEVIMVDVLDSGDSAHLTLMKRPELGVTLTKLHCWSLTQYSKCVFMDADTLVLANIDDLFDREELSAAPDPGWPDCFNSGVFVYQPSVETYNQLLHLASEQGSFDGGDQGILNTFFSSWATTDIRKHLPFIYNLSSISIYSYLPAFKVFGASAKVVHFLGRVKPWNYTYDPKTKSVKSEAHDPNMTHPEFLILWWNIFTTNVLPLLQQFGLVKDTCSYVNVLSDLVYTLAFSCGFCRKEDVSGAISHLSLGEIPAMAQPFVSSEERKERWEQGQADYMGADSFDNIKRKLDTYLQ
For `CC(C)c1ccc([C@H](NC(=O)[C@@H]2C[C@@H](F)CN2C(=O)Cc2cnn[nH]2)c2cccc(F)c2)cc1F` [Compound 647, (2S,4R)-4-fluoro-N-[(R)-[3-fluoro-4-(propan-2-yl)phenyl](3-fluorophenyl)methyl]-1-[2-(1H-1,2,3-triazol-5-yl)acetyl]pyrrolidine-2-carboxamide], the IC50 is 1.64 µM. For the molecule `CC(=O)Nc1cccc([C@H](NC(=O)[C@@H]2C[C@@H](F)CN2C(=O)Cc2cn(C)nn2)c2ccc(C(C)C)cc2)c1` [Compound 649, (2S,4R)-N-[(R)-(3-acetamidophenyl) [4-(propan-2-yl)phenyl]methyl]-4-fluoro-1-[2-(1-methyl-1H-1,2,3-triazol-4-yl)acetyl]pyrrolidine-2-carboxamide], the IC50 was found to be 0.483 µM. As for `Cc1cc(C(C)C)ccc1[C@@H](NC(=O)[C@@H]1C[C@@H](F)CN1C(=O)Cc1ncco1)c1ccccc1` [Compound 663, (2S,4R)-4-fluoro-N-[(S)-[2-methyl-4-(propan-2-yl)phenyl](phenyl)methyl]-1-[2-(1,3-oxazol-2-yl)acetyl]pyrrolidine-2-carboxamide], the IC50 is 2.02 µM. In the case of `C#CCCCCCC(=O)N1CCC[C@H]1C(=O)N[C@@H](c1ccccc1)c1ccc(C(C)C)cc1` [Compound 701, (2S)-1-(oct-7-ynoyl)-N-[(S)-phenyl[4-(propan-2-yl)phenyl]methyl]pyrrol-idine-2-carboxamide] it was 0.446 µM.

`COc1ccc(C2CC2C(=O)N2C[C@H](F)C[C@H]2C(=O)N[C@@H](c2ccccc2)c2ccc(C(C)C)cc2)cc1` (stereo partly drawn) [Compound 703, (2S,4R)-4-fluoro-1-[2-(4-methoxyphenyl)cyclopro-panecarbonyl]-N-[(S)-phenyl[4-(propan-2-yl)phenyl]methyl]pyrrol-idine-2-carboxamide]: the IC50 was 2.16 µM. With `CC(C)c1ccc([C@@H](NC(=O)[C@@H]2C[C@@H](F)CN2C(=O)c2ccc3c(n2)NC(=O)CC3)c2ccccc2)cc1` [Compound 704, (2S,4R)-4-fluoro-1-(7-oxo-5,6,7,8-tetrahydro-1,8-naphthyridine-2-carbonyl)-N-[(S)-phenyl[4-(propan-2-yl)phenyl]methyl]pyrrol-idine-2-carboxamide], the IC50 worked out at 2.22 µM. In the case of `CC(C)COc1cc(C(=O)N2C[C@H](F)C[C@H]2C(=O)N[C@@H](c2ccccc2)c2ccc(C(C)C)cc2)ccn1` [Compound 705, (2S,4R)-4-fluoro-1-[2-(2-methylpropoxy)pyridine-4-carbonyl]-N-[(S)-phenyl[4-(propan-2-yl)phenyl]methyl]pyrrol-idine-2-carboxamide] it was 1.72 µM; in that of `CC(C)c1ccc([C@@H](NC(=O)[C@@H]2C[C@@H](F)CN2C(=O)c2cc(-n3ccnc3)ccn2)c2ccccc2)cc1` [Compound 707, (2S,4R)-4-fluoro-1-[4-(1H-imidazol-1-yl)pyridine-2-carbonyl]-N-[(S)-phenyl[4-(propan-2-yl)phenyl]methyl]pyrrol-idine-2-carboxamide], 1.99 µM.

Turning to `CC(C)c1ccc([C@@H](NC(=O)[C@@H]2C[C@@H](F)CN2C(=O)C(=O)Nc2cccnc2)c2ccccc2)cc1` [Compound 708, (2S,4R)-4-fluoro-N-[(S)-phenyl[4-(propan-2-yl)phenyl]methyl]-1-{[(pyridin-3-yl)carbamoyl]carbonyl} pyrrolidine-2-carboxamide], the IC50 was determined as 2.51 µM. As to `COc1cc(C(=O)N2C[C@H](F)C[C@H]2C(=O)N[C@@H](c2ccccc2)c2ccc(C(C)C)cc2)nn1C` [Compound 709, (2S,4R)-4-fluoro-1-(5-methoxy-1-methyl-1H-pyrazole-3-carbonyl)-N-[(S)-phenyl[4-(propan-2-yl)phenyl]methyl]pyrrol-idine-2-carboxamide], the IC50 came to 1.14 µM. In the case of `CC(C)c1ccc([C@@H](NC(=O)[C@@H]2C[C@@H](F)CN2C(=O)Cn2nncc2N2CCC2)c2ccccc2)nc1` [Compound 715, (2S,4R)-1-{2-[5-(azetidin-1-yl)-1H-1,2,3-triazol-1-yl]acetyl}-4-fluoro-N-[(S)-phenyl[5-(propan-2-yl)pyridin-2-yl]methyl]pyrrolidine-2-carboxamide] it was 0.105 µM.
